Test results from the NIST ThermoML archive (doi:10.1021/acs.jced.8b00854).
Numbers after ± are expanded uncertainties.

Assays:
[1] = refractive index (Na D-line) (dimensionless); xn = mol fraction of the nth substance listed; conditions: 100 kPa, Liquid, Standard Abbe refractometry
[2] = xn = mol fraction of the nth substance listed; conditions: 100 kPa, Liquid, Vibrating tube method

Structure (SMILES): CCCCCCCC[n+]1ccn(C)c1.F[B-](F)(F)F [1-methyl-3-octylimidazolium tetrafluoroborate] + O
- refractive index ([1]; 293.15 K, x1 = 0.3005): 1.4165 ± 0.0018
- refractive index ([1]; 293.15 K, x1 = 0.4006): 1.4205 ± 0.0016
- refractive index ([1]; 293.15 K, x1 = 0.5002): 1.424 ± 0.0016
- refractive index ([1]; 293.15 K, x1 = 0.6001): 1.4265 ± 0.0016
- refractive index ([1]; 293.15 K, x1 = 0.7006): 1.4285 ± 0.0016
- refractive index ([1]; 293.15 K, x1 = 0.8004): 1.4305 ± 0.0016
- refractive index ([1]; 293.15 K, x1 = 0.9015): 1.4315 ± 0.0016
- refractive index ([1]; 303.15 K, x1 = 0.3005): 1.414 ± 0.0016
- refractive index ([1]; 303.15 K, x1 = 0.4006): 1.419 ± 0.0016
- refractive index ([1]; 303.15 K, x1 = 0.5002): 1.422 ± 0.0016
- refractive index ([1]; 303.15 K, x1 = 0.6001): 1.425 ± 0.0016
- refractive index ([1]; 303.15 K, x1 = 0.7006): 1.4265 ± 0.0016
- refractive index ([1]; 303.15 K, x1 = 0.8004): 1.428 ± 0.0016
- refractive index ([1]; 303.15 K, x1 = 0.9015): 1.4295 ± 0.0017
- refractive index ([1]; 313.15 K, x1 = 0.3005): 1.413 ± 0.0016
- refractive index ([1]; 313.15 K, x1 = 0.4006): 1.4165 ± 0.0016
- refractive index ([1]; 313.15 K, x1 = 0.5002): 1.4205 ± 0.0016
- refractive index ([1]; 313.15 K, x1 = 0.6001): 1.423 ± 0.0016
- refractive index ([1]; 313.15 K, x1 = 0.7006): 1.4245 ± 0.0016
- refractive index ([1]; 313.15 K, x1 = 0.8004): 1.4265 ± 0.0016
- refractive index ([1]; 313.15 K, x1 = 0.9015): 1.427 ± 0.0016
- refractive index ([1]; 323.15 K, x1 = 0.3005): 1.4125 ± 0.0016
- refractive index ([1]; 323.15 K, x1 = 0.4006): 1.416 ± 0.0016
- refractive index ([1]; 323.15 K, x1 = 0.5002): 1.419 ± 0.0016
- refractive index ([1]; 323.15 K, x1 = 0.6001): 1.422 ± 0.0016
- refractive index ([1]; 323.15 K, x1 = 0.7006): 1.423 ± 0.0016
- refractive index ([1]; 323.15 K, x1 = 0.8004): 1.424 ± 0.0016
- refractive index ([1]; 323.15 K, x1 = 0.9015): 1.4255 ± 0.0016
- refractive index ([1]; 333.15 K, x1 = 0.3005): 1.412 ± 0.0016
- refractive index ([1]; 333.15 K, x1 = 0.4006): 1.415 ± 0.0016
- refractive index ([1]; 333.15 K, x1 = 0.5002): 1.4185 ± 0.0016
- refractive index ([1]; 333.15 K, x1 = 0.6001): 1.4195 ± 0.0016
- refractive index ([1]; 333.15 K, x1 = 0.7006): 1.421 ± 0.0016
- refractive index ([1]; 333.15 K, x1 = 0.8004): 1.4225 ± 0.0016
- refractive index ([1]; 333.15 K, x1 = 0.9015): 1.4235 ± 0.0016
- refractive index ([1]; 343.15 K, x1 = 0.3005): 1.412 ± 0.002
- refractive index ([1]; 343.15 K, x1 = 0.4006): 1.414 ± 0.0016
- refractive index ([1]; 343.15 K, x1 = 0.5002): 1.417 ± 0.0016
- refractive index ([1]; 343.15 K, x1 = 0.6001): 1.419 ± 0.0016
- refractive index ([1]; 343.15 K, x1 = 0.7006): 1.419 ± 0.0016
- refractive index ([1]; 343.15 K, x1 = 0.8004): 1.4205 ± 0.0016
- refractive index ([1]; 343.15 K, x1 = 0.9015): 1.4215 ± 0.0016
- mass density ([2]; 293.15 K, x1 = 0.3005): 1084.34 ± 2 kg/m3
- mass density ([2]; 293.15 K, x1 = 0.4006): 1089.21 ± 2 kg/m3
- mass density ([2]; 293.15 K, x1 = 0.5002): 1094.12 ± 2 kg/m3
- mass density ([2]; 293.15 K, x1 = 0.6001): 1098.16 ± 2 kg/m3
- mass density ([2]; 293.15 K, x1 = 0.7006): 1100.51 ± 2 kg/m3
- mass density ([2]; 293.15 K, x1 = 0.8004): 1103.28 ± 2 kg/m3
- mass density ([2]; 293.15 K, x1 = 0.9015): 1104.81 ± 2 kg/m3
- mass density ([2]; 303.15 K, x1 = 0.3005): 1076.96 ± 2 kg/m3
- mass density ([2]; 303.15 K, x1 = 0.4006): 1082.09 ± 2 kg/m3
- mass density ([2]; 303.15 K, x1 = 0.5002): 1087.07 ± 2 kg/m3
- mass density ([2]; 303.15 K, x1 = 0.6001): 1091.18 ± 2 kg/m3
- mass density ([2]; 303.15 K, x1 = 0.7006): 1093.59 ± 2 kg/m3
- mass density ([2]; 303.15 K, x1 = 0.8004): 1096.42 ± 2 kg/m3
- mass density ([2]; 303.15 K, x1 = 0.9015): 1098.01 ± 2 kg/m3
- mass density ([2]; 313.15 K, x1 = 0.3005): 1069.66 ± 2 kg/m3
- mass density ([2]; 313.15 K, x1 = 0.4006): 1074.86 ± 2 kg/m3
- mass density ([2]; 313.15 K, x1 = 0.5002): 1080 ± 2 kg/m3
- mass density ([2]; 313.15 K, x1 = 0.6001): 1084.21 ± 2 kg/m3
- mass density ([2]; 313.15 K, x1 = 0.7006): 1086.68 ± 2 kg/m3
- mass density ([2]; 313.15 K, x1 = 0.8004): 1089.58 ± 2 kg/m3
- mass density ([2]; 313.15 K, x1 = 0.9015): 1091.22 ± 2 kg/m3
- mass density ([2]; 323.15 K, x1 = 0.3005): 1061.92 ± 2 kg/m3
- mass density ([2]; 323.15 K, x1 = 0.4006): 1067.52 ± 2 kg/m3
- mass density ([2]; 323.15 K, x1 = 0.5002): 1072.9 ± 2 kg/m3
- mass density ([2]; 323.15 K, x1 = 0.6001): 1077.21 ± 2 kg/m3
- mass density ([2]; 323.15 K, x1 = 0.7006): 1079.77 ± 2 kg/m3
- mass density ([2]; 323.15 K, x1 = 0.8004): 1082.8 ± 2 kg/m3
- mass density ([2]; 323.15 K, x1 = 0.9015): 1084.48 ± 2 kg/m3
- mass density ([2]; 343.15 K, x1 = 0.3005): 1041.36 ± 2 kg/m3
- mass density ([2]; 343.15 K, x1 = 0.4006): 1049.84 ± 2 kg/m3
- mass density ([2]; 343.15 K, x1 = 0.5002): 1057.37 ± 2 kg/m3
- mass density ([2]; 343.15 K, x1 = 0.6001): 1062.23 ± 2 kg/m3
- mass density ([2]; 343.15 K, x1 = 0.7006): 1065.07 ± 2 kg/m3
- mass density ([2]; 343.15 K, x1 = 0.8004): 1069.34 ± 2 kg/m3
- mass density ([2]; 343.15 K, x1 = 0.9015): 1070.96 ± 2 kg/m3
